Assays:
[1] = Partition coefficient (logD); conditions: octanol/water
[2] = Half life was measured as time taken to decrease half of its initial concentration
[3] = Volume of distribution of the compound; conditions: in vivo
[4] = Plasma clearance of the compound

Row | Structure (SMILES) | logD [1] | half-life [2] [min] | Vd [3] [L/kg] | clearance [4] [mL/min/kg]
1 | CCOC(=O)C1=C(COCCN)NC(C)=C(C(=O)OC)C1c1ccccc1Cl (stereo unspecified) [AMLODIPINE] | 1.8 | – | – | –
2 | CCOC(=O)C1=C(C)NC(C)=C(C(=O)OC)C1c1cccc(Cl)c1Cl (stereo unspecified) [FELODIPINE] | 4.8 | – | – | –
3 | COC(=O)C1=C(C)NC(C)=C(C(=O)OC)C1c1ccccc1[N+](=O)[O-] [NIFEDIPINE] | – | 114 | 1 | –
4 | CCOC(=O)C1=C(C)NC(C)=C(C(=O)OC)C1c1cccc([N+](=O)[O-])c1 (stereo unspecified) [NITRENDIPINE] | 4.2 | 240 | 3.8 | 21
5 | CO[C@H]1/C=C/O[C@@]2(C)Oc3c(C)c(O)c4c(c3C2=O)C2=NC3(CCN(CC(C)C)CC3)NC2=C(NC(=O)/C(C)=C\C=C\[C@H](C)[C@H](O)[C@@H](C)[C@@H](O)[C@@H](C)[C@H](OC(C)=O)[C@@H]1C)C4=O [RIFABUTIN] | – | 2700 | 266 | 80
6 | CO[C@H]1/C=C/O[C@@]2(C)Oc3c(C)c(O)c4c(O)c(c(/C=N/N5CCN(C)CC5)c(O)c4c3C2=O)NC(=O)/C(C)=C\C=C\[C@H](C)[C@H](O)[C@@H](C)[C@@H](O)[C@@H](C)[C@H](OC(C)=O)[C@@H]1C [RIFAMPIN] | – | – | 8.8 | 32
7 | CO[C@H]1/C=C/O[C@@]2(C)Oc3c(C)c(O)c4c(O)c(cc(O)c4c3C2=O)NC(=O)/C(C)=C\C=C\[C@H](C)[C@H](O)[C@@H](C)[C@@H](O)[C@@H](C)[C@H](OC(C)=O)[C@@H]1C [RIFAMYCIN] | – | 19.8 | 1.2 | 80

From ChEMBL document CHEMBL1134401, “Property-based design: optimization of drug absorption and pharmacokinetics” (J Med Chem, 2001)
